We go through one molecule from patent publication US11571426B2, “Compositions for preventing or treating lupus” (CHONG KUN DANG PHARMACEUTICAL CORP., priority 2017, dated 2023).

Assay [1] deals with NZB/W F1 female mice. Kind of assay: Survival rate in SLE model mouse. In kind it is in vivo. To be noted: for survival rate: 42 weeks after birth. As for the experimental part:
(§1) 80 NZB/W F1 female mice (four weeks old) were purchased from Jackson Laboratory and maintained in an SPF breeding room with five mice per cage. Their weight and urine protein were measured at 24 weeks after birth (right before administration), and then all the animals except those having too much urine protein were divided into groups as shown in a table 2 below such that the urine protein and weight might be evenly distributed among the groups.
(§2) Then, the mice were administered as described in the table 2 once a day for about 19 weeks from 24 weeks after birth to 42 weeks after birth.
An NZB/W F1 female mouse is used as a human SLE disease model. If not treated at all, it is known that this model falls dead all after 12 months or so (about 52 weeks old) due to immune-complex glomerulonephritis.

The subject of assay [2] is NZB/W F1 female mice. Description: BUN and serum creatinine in SLE model mouse. In kind it is in vivo. The procedure: as §1, §2
The fresh urine of mice was collected before and after administration every two weeks, while blood collection was performed before and after administration every four weeks. The serum was prepared by centrifugation of the collected blood and then kept at −70° C.
To evaluate a kidney function of the SLE model mouse, BUN and creatine concentrations were measured from a mouse serum collected every month (at 24, 28, 32, 36 and 40 weeks old and during autopsy) by means of a Dri-CHEM 3000 colorimetric analyzer (Fuji film).

The test system of assay [3] is NZB/W F1 female mice. Description: Ratio of PreB and ProB cells in marrow (FACS). The format is in vivo, mouse. To be noted: experimental groups vs control group. The procedure: as §1, §2
A ratio of pro B (B220+, CD43+) and pre B (B220+, CD43−) cells in mouse marrow cells was measured by means of FACS. To that end, the marrow cells were obtained by flushing a femur with PBS comprising 5% BSA. After that, red blood cells were hemolyzed by means of EL buffer, then washed with FACS buffer (5% BSA/PBS), and then stained with FITC-conjugated anti-mouse CD43 antibodies (ebioscience) and PE-conjugated anti-mouse […] antibodies (ebioscience), such that a ratio of Pre B (B220+CD43-) and Pro B (B220+CD43+) cells was measured.

[4] abbreviates: experimental groups vs control groups.
Setting [5] is: experimental groups, 40 weeks old.

On to `O=C(NO)c1ccc(CN(C(=O)N2CCOCC2)c2cccc(C(F)(F)F)c2)cc1` [Compound 374, N-(4-(hydroxycarbamoyl)benzyl)-N-(3-(trifluoromethyl)phenyl)morpholine-4-carboxamide], for which the survival rate entry with NZB/W F1 female mice [1] (10 mg/kg dosed group) is reported as “about 73.3%”; in the assay with NZB/W F1 female mice [1] (30 mg/kg dosed group), “about 93.3%”; with NZB/W F1 female mice [1] (50 mg/kg dosed group) it was “about 93.3%”. For the same molecule, the survival rate pattern result in the assay on NZB/W F1 female mice [1] (experimental groups (10, 30, 50 mg/kg), vs negative control) was “better recovery pattern”. The results for the BUN concentration entry in the assay with NZB/W F1 female mice [2] (setting [4]) and in the assay with NZB/W F1 female mice [2] (setting [5]) were “decreased” and “remarkably excellent effect of reducing”, respectively. In addition, the serum creatine concentration result was “decreased” in the assay on NZB/W F1 female mice [2] (setting [4]) and “remarkably excellent effect of reducing” with NZB/W F1 female mice [2] (setting [5]). Besides, the “ratio of pre B and pro B cells in marrow” value in the assay with NZB/W F1 female mice [3] is “significant change in the ratio of pre B and pro B cells was not observed”.
